# Assays:
# [1] = tested on: antigen-positive E3 cell line; settings: read-out: IC50 (cytotoxicities); cited from earlier work
# E3 target cells = settings: read-out: IC50 (selective cytotoxicity); cited from earlier work
# lysosomal hydrolases = settings: cited from earlier work
# [2] = tested on: hematological tumor cells; test: HSC70 vaccine protection against hematological tumor cells in mice; format: in vivo; settings: mice vaccinated prior to injection of tumor cells versus not vaccinated
compound,measurement,setting,value
"O=c1[nH]c(=O)n([C@H]2C[C@H](O)[C@@H](CO)O2)cc1F [FUDR, 5-fluoro-2′-deoxyuridine]",IC50,[1],0.4 nM
"CC(=O)[C@]1(O)Cc2c(O)c3c(c(O)c2[C@@H](O[C@H]2C[C@H](N)[C@H](O)[C@H](C)O2)C1)C(=O)c1ccccc1C3=O [Ida, Idarubicin]",IC50,E3 target cells,120 nM
Ala-Leu-Dau [Ala-Leu-Dau derivative],time for conversion back to the free drug by lysosomal hydrolases,lysosomal hydrolases,2 h
"HSC70: purified full length murine HSC70 protein used as vaccine antigen, may be administered with an adjuvant",tumor size,[2],smaller
